According to ChEMBL document CHEMBL2331426, “A formyl peptide substituted with a conformationally constrained phenylalanine residue evokes a selective immune response in human neutrophils” (Bioorg Med Chem, 2013):
Calls of active or inactive are those of the source. No cut-off for these calls is given here.

How the values were obtained:
[1] = biological target: T1, fMet-Leu-Phe receptor 1/2 (Homo sapiens) (UniProt P21462+P25090); assay: Agonist activity at FPR1/FPR2 receptor in human neutrophils assessed as stimulation of fMLP-OMe-induced superoxide radical generation at 0.1 uM incubated for 5 mins followed by fMLP-OMe induction by spectrophotometric analysis relative to control
[2] = biological target: T1, fMet-Leu-Phe receptor 1/2 (Homo sapiens); assay: Agonist activity at FPR1/FPR2 receptor in human neutrophils assessed as induction of chemotaxis after 60 mins relative to fMLP-OMe
[3] = biological target: T1, fMet-Leu-Phe receptor 1/2 (Homo sapiens); assay: Agonist activity at FPR1/FPR2 receptor in human neutrophils assessed as increase in intracellular calcium concentration at 0.1 uM by Fura-2-based spectrofluorophotometric analysis; type: functional, cell-based
[4] = biological target: T2, fMet-Leu-Phe receptor 1/2 (Homo sapiens, UniProt P21462+P25090); assay: Agonist activity at FPR1/FPR2 receptor in human neutrophils assessed as induction of chemotaxis after 60 mins
T2 sequence (P21462 whole entry): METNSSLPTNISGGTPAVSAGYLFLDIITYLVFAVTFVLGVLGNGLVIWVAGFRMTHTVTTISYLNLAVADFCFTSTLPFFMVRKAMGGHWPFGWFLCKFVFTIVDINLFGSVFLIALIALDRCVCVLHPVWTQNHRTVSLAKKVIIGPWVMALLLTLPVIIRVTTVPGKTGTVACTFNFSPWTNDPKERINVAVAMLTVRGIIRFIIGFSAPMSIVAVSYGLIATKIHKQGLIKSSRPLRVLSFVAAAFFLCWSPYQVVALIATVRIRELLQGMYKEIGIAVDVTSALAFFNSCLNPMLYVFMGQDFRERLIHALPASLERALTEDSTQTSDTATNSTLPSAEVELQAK
T2 sequence (P25090 whole entry): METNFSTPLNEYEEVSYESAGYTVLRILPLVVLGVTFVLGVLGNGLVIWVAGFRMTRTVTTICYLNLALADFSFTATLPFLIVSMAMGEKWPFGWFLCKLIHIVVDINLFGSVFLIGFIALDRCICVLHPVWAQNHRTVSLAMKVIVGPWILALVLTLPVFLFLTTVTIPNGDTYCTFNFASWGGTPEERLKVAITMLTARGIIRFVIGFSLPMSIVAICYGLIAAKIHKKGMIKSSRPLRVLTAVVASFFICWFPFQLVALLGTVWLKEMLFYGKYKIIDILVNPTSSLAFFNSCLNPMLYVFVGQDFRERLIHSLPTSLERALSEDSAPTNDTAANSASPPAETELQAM

[5] = biological target: T1, fMet-Leu-Phe receptor 1/2 (Homo sapiens); assay: Agonist activity at FPR1/FPR2 receptor in human neutrophils assessed as induction of superoxide radical generation at 1 uM by spectrophotometric analysis
[6] = biological target: T3, N-formyl peptide receptor 2 (Homo sapiens) (UniProt P25090); assay: Binding affinity to FPR2 receptor in human neutrophils assessed as induction of intracellular calcium mobilization at 1 uM in presence of MMK-1; type: functional, cell-based
T3 sequence (whole entry): T2 sequence (P25090 whole entry)

[7] = biological target: T2, fMet-Leu-Phe receptor 1/2; assay: Agonist activity at FPR1/FPR2 receptor in human neutrophils assessed as induction of superoxide radical generation by spectrophotometric analysis
[8] = biological target: T1, fMet-Leu-Phe receptor 1/2 (Homo sapiens); assay: Agonist activity at FPR1/FPR2 receptor in human neutrophils assessed as induction of superoxide radical generation at 1 uM by […] spectrophotometric analysis relative to fMLP-OMe
[9] = biological target: T1, fMet-Leu-Phe receptor 1/2 (Homo sapiens); assay: Agonist activity at FPR1/FPR2 receptor in human neutrophils assessed as increase in intracellular calcium concentration by spectrofluorophotometric analysis; type: functional, cell-based

Activity [1] | Activity [2] | Activity [3] | EC50 [4] | Activity [5] | Activity [6] | EC50 [7] | Activity [8] | Activity [9] | SMILES
– | – | – | – | – | – | – | – | Active | CSCC[C@H](NC(=O)[C@H](Cc1ccc(O)cc1)NC(=O)[C@H](CCCCN)NC(=O)[C@@H](N)Cc1c[nH]c2ccccc12)C(=O)N[C@H](C(=O)N[C@H](CCSC)C(=O)O)C(C)C
– | – | Active | 0.0025 µM | – | – | 0.016 µM | – | – | COC(=O)[C@H](Cc1ccccc1)NC(=O)[C@H](CC(C)C)NC(=O)[C@H](CCSC)NC=O
175% | 12% | Active | 0.021 µM | 10% | Active | – | 45% | – | COC(=O)[C@]1(NC(=O)[C@H](CC(C)C)NC(=O)[C@H](CCSC)NC=O)C[C@H]1c1ccccc1

The remaining lines, values behind:

SMILES | Activity [1] | Activity [2] | Activity [3] | EC50 [4] | Activity [5] | Activity [6] | EC50 [7] | Activity [8] | Activity [9]
COC(=O)[C@]1(NC(=O)[C@H](CC(C)C)NC(=O)[C@H](CCSC)NC=O)C[C@@H]1c1ccccc1 | 114% | 18% | Active | 0.014 µM | 10% | inactive | – | – | –
COC(=O)[C@@]1(NC(=O)[C@H](CC(C)C)NC(=O)[C@H](CCSC)NC=O)C[C@H]1c1ccccc1 | 114% | 53% | Active | 0.0047 µM | 10% | inactive | – | – | –
CSCC[C@H](NC=O)C(=O)N[C@@H](CC(C)C)C(=O)N[C@]1(C(=O)O)C[C@@H]1c1ccccc1 | 200% | 26% | Active | 0.0091 µM | – | Active | 0.25 µM | 6.4% | –
